Measurements published in patent US20250326753A1, “DUAL CXCR4-BTK INHIBITORS” (X4 Pharmaceuticals, Inc., priority 2022, published 2025).
Like-named read-outs stand apart in the source and are kept apart here.

Columns and labels:
[1] = biological target: T1, LCK (Homo sapiens, UniProt P06239); test: PanQinase kinase panel: LCK; assay type: biochemical; details: read-out: INHIBITORY EFFECT @ 1 uM: LCK
T1 construct: purchased Reaction Biology Europe GmbH
Method: (§1) Screening procedures were performed in accordance with the company's on-line protocol [accessed on-line Mar.
(§2) For each kinase, the median value of the cpm of three wells was defined as “low control” (n=3). This value reflects unspecific binding of radioactivity to the plate in the absence of a protein kinase but in the presence of the substrate. Additionally, for each kinase the median value of the cpm of three other wells was taken as the “high control,” i.e. full activity in the absence of any inhibitor (n=3). The difference between high and low control of each enzyme was taken as 100% activity.
(§3) As part of the data evaluation the low control of each kinase was subtracted from the high control value as well as from their corresponding “compound values”. The residual activity (in %) for each compound well was calculated by using the following formula: Res. Activity (%)=100×[(signal of compound−low control)/(high control−low control)].

[2] = biological target: T2, INSR (Homo sapiens, UniProt P06213); test: PanQinase kinase panel: INSR; assay type: biochemical; details: read-out: INHIBITORY EFFECT @ 1 uM: INSR
T2 construct: purchased Reaction Biology Europe GmbH
Method: as §1, §2, §3

[3] = biological target: T3, p38beta (Homo sapiens, UniProt Q15759); test: PanQinase kinase panel: p38beta; assay type: biochemical; details: read-out: INHIBITORY EFFECT @ 1 uM: p38beta
T3 construct: purchased Reaction Biology Europe GmbH
Method: as §1, §2, §3

[4] = biological target: T4, PAK1 (Homo sapiens, UniProt Q13153); test: PanQinase kinase panel: PAK1; assay type: biochemical; details: read-out: INHIBITORY EFFECT @ 1 uM: PAK1
T4 construct: purchased Reaction Biology Europe GmbH
Method: as §1, §2, §3

[5] = biological target: T5, TRKC (Homo sapiens, UniProt Q16288); test: PanQinase kinase panel: TRKC; assay type: biochemical; details: read-out: INHIBITORY EFFECT @ 1 uM: TRKC
T5 construct: purchased Reaction Biology Europe GmbH
Method: as §1, §2, §3

[6] = test system: MWCL-1; test: Apoptosis assay (annexin V flow cytometry) in Waldenstrom's Macroglobulinemia cells; assay type: cell-based, human; details: for IC50: Homo sapiens, read-out: Apoptosis IC50 (μM) in single-mutant WM Cell Lines (MWCL-1); for promoting apoptosis in WM cells (MWCL-1) compared with ibrutinib or zanubrutinib alone: in words
Method: Waldenström's Macroglobulinemia cells (MWCL-1) and the bone marrow stromal cells (BMSCs; HS-27A) were used in this study. The MWCL-1 is a lymphoplasmacytic lymphoma established from the bone marrow aspirate of a patient diagnosed with Waldenström's Macroglobulinemia. It was provided by Dr Stephen M. Ansell (MAYO file number 2021-121; 200 First Street SW, Rochester, Minnesota). This cell line was cultured in RPMI-1640 (Fisher Scientific) containing 10% fetal bovine serum (FBS) (Sigma Aldrich, St Louis, MO), 100U/ml of Penicillin-Streptomycin (Gibco™, ThermoFisher Scientific). The HS-27A bone marrow stromal cells were obtained from ATCC. They were maintained in RPMI 1640 (Fisher Scientific) supplemented with 100U/ml of Penicillin-Streptomycin (Gibco™, ThermoFisher Scientific) and 10% FBS (TakaraBio). Cells were cultured in a 37° C. tissue culture CO2 incubator.
For studies with compounds using a co-culture system of MWCL-1 and BMSCs, BMSCs were cultured in a 96-, 48- or 24-well plates and cultured until the 90% confluence was reached. […] After 1 hour, the MWCL-Icells were added to the BMSC to create a co-culture system. The cells were co-incubated for 72 hours. After incubation time, cell viability, apoptosis, and IgM release were measured.
For studying the effect of compounds on inducing apoptosis of Waldenström Macroglobulinemia cells (MWCL-1). Cells were washed with PBS, resuspended in Annexin V binding buffer (Biolegend), and stained with Alexa Fluor 647 annexin V (Biolegend), Propidium Iodide (BD Pharmigen), and CD45 antibody (Biolegend) for 15 minutes at RT and analyzed by flow cytometry. Data were collected on an CytoFLEX S Flow Cytometer (Beckman Coulter) and analysed with FCS Express Software (De Novo Software). Annexin V positive cells were considered apoptotic.

[7] = test system: 340 wild-type protein kinases; test: PanQinase wild-type kinase panel, selectivity score; assay type: biochemical; details: 1 μM; for Selectivity Score: share of kinases with residual activity <50%, 340 wild-type protein kinase assays
Method: as §1
The selectivity score for a particular compound at a particular concentration was calculated by using the following formula: Selectivity Score=(count of data points <50%)/(total number of data points).

[8] = biological target: T6, CLK1 (Homo sapiens, UniProt P49759); test: PanQinase kinase panel: CLK1; assay type: biochemical
T6 construct: purchased Reaction Biology Europe GmbH
Method: as §1, §2, §3

[9] = biological target: T7, LIMK2 (Homo sapiens, UniProt P53671); test: PanQinase kinase panel: LIMK2; assay type: biochemical
T7 construct: purchased Reaction Biology Europe GmbH
Method: as §1, §2, §3

[10] = biological target: T8, MUSK (Homo sapiens, UniProt O15146); test: PanQinase kinase panel: MUSK; assay type: biochemical
T8 construct: purchased Reaction Biology Europe GmbH
T8 sequence (O15146 24-869): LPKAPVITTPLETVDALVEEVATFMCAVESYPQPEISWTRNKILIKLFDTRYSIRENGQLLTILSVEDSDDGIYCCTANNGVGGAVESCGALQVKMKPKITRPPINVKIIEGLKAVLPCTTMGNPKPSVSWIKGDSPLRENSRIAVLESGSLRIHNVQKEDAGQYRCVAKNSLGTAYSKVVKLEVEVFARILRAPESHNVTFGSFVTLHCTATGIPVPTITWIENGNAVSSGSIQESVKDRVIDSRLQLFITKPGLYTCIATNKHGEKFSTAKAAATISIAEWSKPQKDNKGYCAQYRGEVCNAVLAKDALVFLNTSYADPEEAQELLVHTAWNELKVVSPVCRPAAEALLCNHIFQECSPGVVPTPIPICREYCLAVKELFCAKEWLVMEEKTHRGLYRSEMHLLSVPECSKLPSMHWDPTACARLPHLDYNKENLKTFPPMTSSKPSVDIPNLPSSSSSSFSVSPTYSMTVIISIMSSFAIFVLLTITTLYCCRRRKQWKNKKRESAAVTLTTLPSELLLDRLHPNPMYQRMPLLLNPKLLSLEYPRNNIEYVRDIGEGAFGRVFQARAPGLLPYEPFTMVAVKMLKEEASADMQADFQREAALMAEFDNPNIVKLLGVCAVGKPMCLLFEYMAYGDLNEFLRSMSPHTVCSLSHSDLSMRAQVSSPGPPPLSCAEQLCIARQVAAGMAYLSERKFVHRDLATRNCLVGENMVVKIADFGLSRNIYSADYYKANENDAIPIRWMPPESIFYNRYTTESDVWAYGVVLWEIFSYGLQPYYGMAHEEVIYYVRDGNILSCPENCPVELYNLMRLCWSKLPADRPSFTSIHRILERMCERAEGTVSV
Method: as §1, §2, §3

[11] = read-out: INHIBITORY EFFECT @ 1 uM: CLK1
[12] = read-out: INHIBITORY EFFECT @ 1 uM: LIMK2
[13] = read-out: INHIBITORY EFFECT @ 1 uM: MUSK

T7 sequence (P53671 whole entry): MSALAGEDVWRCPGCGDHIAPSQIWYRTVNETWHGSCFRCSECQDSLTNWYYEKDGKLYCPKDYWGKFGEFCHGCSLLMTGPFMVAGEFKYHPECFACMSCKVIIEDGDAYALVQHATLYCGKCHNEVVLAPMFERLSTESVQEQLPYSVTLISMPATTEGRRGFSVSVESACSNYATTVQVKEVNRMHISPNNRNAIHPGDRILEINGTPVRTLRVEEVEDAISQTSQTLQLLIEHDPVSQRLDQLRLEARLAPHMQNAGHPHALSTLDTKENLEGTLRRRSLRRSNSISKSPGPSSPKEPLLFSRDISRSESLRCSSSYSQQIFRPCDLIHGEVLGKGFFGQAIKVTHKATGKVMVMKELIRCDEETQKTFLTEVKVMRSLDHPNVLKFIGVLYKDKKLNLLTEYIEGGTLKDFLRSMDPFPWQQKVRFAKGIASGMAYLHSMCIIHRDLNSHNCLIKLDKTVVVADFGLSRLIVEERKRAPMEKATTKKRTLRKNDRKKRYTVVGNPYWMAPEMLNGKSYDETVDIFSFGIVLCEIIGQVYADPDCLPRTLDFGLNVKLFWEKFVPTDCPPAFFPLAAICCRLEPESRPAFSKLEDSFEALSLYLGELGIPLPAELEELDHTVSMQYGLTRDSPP
T6 sequence (P49759 whole entry): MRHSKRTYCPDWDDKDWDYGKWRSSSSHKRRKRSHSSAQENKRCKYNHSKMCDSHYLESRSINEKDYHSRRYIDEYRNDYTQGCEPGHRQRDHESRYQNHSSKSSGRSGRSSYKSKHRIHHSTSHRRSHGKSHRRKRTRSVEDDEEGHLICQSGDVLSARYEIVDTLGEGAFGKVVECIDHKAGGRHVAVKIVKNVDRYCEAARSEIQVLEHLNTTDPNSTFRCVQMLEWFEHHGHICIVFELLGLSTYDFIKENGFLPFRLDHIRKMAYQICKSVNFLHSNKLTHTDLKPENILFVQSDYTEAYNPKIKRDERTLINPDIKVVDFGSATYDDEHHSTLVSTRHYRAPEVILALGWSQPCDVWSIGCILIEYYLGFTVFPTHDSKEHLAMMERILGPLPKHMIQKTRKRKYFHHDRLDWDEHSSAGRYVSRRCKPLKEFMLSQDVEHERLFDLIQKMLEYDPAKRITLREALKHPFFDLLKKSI
T5 sequence (Q16288 32-839): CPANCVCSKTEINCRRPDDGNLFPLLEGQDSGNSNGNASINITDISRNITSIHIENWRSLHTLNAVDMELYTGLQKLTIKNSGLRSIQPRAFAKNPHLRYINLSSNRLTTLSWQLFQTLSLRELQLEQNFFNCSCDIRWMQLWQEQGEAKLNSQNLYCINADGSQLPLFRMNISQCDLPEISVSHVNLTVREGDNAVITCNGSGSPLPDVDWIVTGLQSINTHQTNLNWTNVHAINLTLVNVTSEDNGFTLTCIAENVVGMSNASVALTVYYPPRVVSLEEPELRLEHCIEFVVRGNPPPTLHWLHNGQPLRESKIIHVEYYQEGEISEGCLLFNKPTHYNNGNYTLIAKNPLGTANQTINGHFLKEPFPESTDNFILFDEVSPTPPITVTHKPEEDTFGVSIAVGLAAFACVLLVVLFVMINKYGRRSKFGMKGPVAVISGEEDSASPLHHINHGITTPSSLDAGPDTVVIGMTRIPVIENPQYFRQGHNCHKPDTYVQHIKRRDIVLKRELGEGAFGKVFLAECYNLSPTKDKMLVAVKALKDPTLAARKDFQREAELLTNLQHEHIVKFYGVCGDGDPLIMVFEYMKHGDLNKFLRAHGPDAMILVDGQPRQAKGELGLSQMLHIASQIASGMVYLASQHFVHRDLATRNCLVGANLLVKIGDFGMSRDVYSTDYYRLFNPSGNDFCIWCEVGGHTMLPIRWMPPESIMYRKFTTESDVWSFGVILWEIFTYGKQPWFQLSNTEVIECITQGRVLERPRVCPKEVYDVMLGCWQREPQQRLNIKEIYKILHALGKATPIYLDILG
T1 sequence (P06239 whole entry): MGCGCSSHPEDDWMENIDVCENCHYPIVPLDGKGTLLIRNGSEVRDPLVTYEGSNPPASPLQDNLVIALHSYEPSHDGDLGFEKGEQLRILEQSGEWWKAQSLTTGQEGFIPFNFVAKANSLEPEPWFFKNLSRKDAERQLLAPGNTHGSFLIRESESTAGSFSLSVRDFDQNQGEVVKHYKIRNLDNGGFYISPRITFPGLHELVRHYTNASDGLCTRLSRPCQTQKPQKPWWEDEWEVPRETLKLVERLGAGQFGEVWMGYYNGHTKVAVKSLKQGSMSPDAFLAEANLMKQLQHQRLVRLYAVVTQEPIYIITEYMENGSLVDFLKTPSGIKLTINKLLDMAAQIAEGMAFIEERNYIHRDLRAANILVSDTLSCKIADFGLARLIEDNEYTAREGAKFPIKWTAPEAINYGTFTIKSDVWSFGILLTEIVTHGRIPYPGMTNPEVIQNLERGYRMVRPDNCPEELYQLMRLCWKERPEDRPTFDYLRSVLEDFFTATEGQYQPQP
T3 sequence (Q15759 whole entry): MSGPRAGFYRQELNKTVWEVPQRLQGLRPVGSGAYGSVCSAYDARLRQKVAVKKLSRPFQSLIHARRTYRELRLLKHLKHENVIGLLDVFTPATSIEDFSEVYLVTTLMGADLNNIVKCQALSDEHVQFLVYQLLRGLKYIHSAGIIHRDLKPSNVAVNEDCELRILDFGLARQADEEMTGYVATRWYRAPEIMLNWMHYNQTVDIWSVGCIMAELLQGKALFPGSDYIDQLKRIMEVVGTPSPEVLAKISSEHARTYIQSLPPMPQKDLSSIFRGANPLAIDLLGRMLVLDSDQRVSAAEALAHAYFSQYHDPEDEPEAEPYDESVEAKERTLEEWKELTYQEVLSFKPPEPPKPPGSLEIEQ
T2 sequence (P06213 28-1382): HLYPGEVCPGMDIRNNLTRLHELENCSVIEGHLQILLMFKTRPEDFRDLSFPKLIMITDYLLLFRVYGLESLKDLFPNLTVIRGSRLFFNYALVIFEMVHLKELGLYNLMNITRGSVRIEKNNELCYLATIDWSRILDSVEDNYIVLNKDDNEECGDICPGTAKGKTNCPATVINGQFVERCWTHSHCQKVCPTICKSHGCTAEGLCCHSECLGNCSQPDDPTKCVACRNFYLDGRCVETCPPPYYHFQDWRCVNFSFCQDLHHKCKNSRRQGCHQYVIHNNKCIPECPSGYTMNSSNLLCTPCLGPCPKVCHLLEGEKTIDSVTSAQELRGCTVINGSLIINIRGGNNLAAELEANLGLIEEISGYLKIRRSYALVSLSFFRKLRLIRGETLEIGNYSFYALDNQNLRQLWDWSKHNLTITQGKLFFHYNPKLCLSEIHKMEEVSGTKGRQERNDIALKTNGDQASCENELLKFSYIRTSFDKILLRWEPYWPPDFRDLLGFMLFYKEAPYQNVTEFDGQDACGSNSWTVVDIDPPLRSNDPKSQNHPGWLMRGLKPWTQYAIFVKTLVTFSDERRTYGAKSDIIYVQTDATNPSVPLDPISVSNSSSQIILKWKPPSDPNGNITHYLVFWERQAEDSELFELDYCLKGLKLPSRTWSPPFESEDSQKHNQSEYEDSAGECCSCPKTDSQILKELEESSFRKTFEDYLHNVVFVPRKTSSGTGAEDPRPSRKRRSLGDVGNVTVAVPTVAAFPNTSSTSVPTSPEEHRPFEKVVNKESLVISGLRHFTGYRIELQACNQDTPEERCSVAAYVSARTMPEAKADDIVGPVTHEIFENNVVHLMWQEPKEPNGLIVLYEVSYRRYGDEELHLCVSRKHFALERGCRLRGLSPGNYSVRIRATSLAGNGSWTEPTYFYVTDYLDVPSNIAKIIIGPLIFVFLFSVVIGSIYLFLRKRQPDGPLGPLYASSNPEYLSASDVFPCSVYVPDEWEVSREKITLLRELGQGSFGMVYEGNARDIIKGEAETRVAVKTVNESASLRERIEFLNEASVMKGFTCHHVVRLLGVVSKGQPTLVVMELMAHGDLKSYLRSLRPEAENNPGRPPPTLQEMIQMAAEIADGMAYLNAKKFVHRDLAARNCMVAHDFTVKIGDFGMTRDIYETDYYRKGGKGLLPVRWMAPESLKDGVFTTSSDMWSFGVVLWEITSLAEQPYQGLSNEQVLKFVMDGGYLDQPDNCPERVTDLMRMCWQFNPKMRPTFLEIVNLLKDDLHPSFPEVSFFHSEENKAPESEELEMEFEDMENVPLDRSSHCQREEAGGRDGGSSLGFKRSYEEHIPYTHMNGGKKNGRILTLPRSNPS
T4 sequence (Q13153 whole entry): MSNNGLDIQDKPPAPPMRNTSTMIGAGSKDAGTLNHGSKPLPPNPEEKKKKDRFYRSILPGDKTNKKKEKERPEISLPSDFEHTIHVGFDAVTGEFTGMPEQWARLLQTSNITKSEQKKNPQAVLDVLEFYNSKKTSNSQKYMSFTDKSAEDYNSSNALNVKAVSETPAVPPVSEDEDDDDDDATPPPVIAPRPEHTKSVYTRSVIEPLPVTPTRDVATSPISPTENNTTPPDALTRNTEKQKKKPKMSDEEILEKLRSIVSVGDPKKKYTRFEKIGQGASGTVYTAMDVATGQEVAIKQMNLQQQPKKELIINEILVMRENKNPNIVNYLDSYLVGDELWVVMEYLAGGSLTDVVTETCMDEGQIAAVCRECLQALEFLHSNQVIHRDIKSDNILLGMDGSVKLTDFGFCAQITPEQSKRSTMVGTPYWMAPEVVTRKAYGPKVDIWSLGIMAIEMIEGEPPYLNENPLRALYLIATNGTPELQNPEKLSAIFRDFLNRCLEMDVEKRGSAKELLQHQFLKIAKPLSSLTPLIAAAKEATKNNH

| Selectivity Score [7] | Compound | inhibition at 1 µM [1] [%] | inhibition at 1 µM [2] [%] | inhibition at 1 µM [3] [%] | inhibition at 1 µM [4] [%] | inhibition at 1 µM [5] [%] | IC50 ([6]; class symbol) [µM] | promoting apoptosis in WM cells (MWCL-1) compared with ibrutinib or zanubrutinib alone [6] | kinase selectivity profile ([7]; panel of approximately 336 wild-type kinases, in words) | inhibition at 1 µM ([8]; at 1 μM, read-out: inhibition of CLK1) [%] | inhibition at 1 µM [8, 11] [%] | inhibition at 1 µM ([9]; at 1 μM, read-out: inhibition of LIMK2) [%] | inhibition at 1 µM [9, 12] [%] | inhibition at 1 µM ([10]; at 1 μM, read-out: inhibition of MUSK) [%] | inhibition at 1 µM [10, 13] [%] | IC50 ([6]; numeric) [µM] |
| --- | --- | --- | --- | --- | --- | --- | --- | --- | --- | --- | --- | --- | --- | --- | --- | --- |
|  | O=C(c1ccc(Oc2ccccc2)cc1Cl)c1c[nH]c2ncnc(N[C@@H]3CC[C@@H](CO)OC3)c12 [ARQ-531, (2-chloro-4-phenoxyphenyl) (4-(((3R,6S)-6-(hydroxymethyl)tetrahydro-2H-pyran-3-yl)amino)-7H-pyrrolo[2,3-d]pyrimidin-5-yl) methanone] | 90 to 100 | 70 to 89 | 70 to 89 | 50 to 69 | < 50 |  |  |  |  |  |  |  |  |  |  |
| 0.032 | Cc1cc(-c2ccnc(Nc3cnn(CCN4[C@@H](c5ncccc5C)CCC[C@H]4c4ncccc4C)c3)n2)ccc1CNC(=O)N1CC(OC(C)C)C1 [Compound I-11] |  |  |  |  |  | 0.1 to 2 | more effective in promoting apoptosis |  |  |  |  |  |  |  |  |
| 0.265 | Cc1cccnc1[C@H]1CCC[C@@H](c2ncccc2C)N1CCCCNC(=O)[C@@H]1CC[C@@H](Nc2ncnc3[nH]cc(C(=O)c4ccc(Oc5ccccc5)cc4Cl)c23)CO1 [Compound I-16] |  |  |  |  |  |  |  |  |  |  |  |  |  |  |  |
| 0.221 | Cc1cccnc1[C@H]1CCC[C@@H](c2ncccc2C)N1CCCCNC(=O)OC[C@@H]1CC[C@@H](Nc2ncnc3[nH]cc(C(=O)c4ccc(Oc5ccccc5)cc4Cl)c23)CO1 [Compound I-18] |  |  |  |  |  |  |  |  |  |  |  |  |  |  |  |
|  | COc1ccc(F)cc1C(=O)NCc1ccc(-c2nn([C@@H](C)C(F)(F)F)c(N)c2C(N)=O)cc1 [LOXO-305, pirtobrutinib] | < 50 | < 50 | < 50 | < 50 | 50 to 69 |  |  |  |  | < 50 |  | < 50 |  | < 50 |  |
|  | C=CC(=O)N1CCC([C@@H]2CCNc3c(C(N)=O)c(-c4ccc(Oc5ccccc5)cc4)nn32)CC1 [Zanubrutinib, (7S)-2-(4-phenoxyphenyl)-7-(1-prop-2-enoylpiperidin-4-yl)-4,5,6,7-tetrahydropyrazolo[1,5-a]pyrimidine-3-carboxamide] | < 50 | < 50 | < 50 | < 50 | < 50 |  |  |  |  | < 50 |  | < 50 |  | < 50 | 17.7 |

| Compound | Selectivity Score [7] | inhibition at 1 µM [1] [%] | inhibition at 1 µM [2] [%] | inhibition at 1 µM [3] [%] | inhibition at 1 µM [4] [%] | inhibition at 1 µM [5] [%] | IC50 ([6]; class symbol) [µM] | promoting apoptosis in WM cells (MWCL-1) compared with ibrutinib or zanubrutinib alone [6] | kinase selectivity profile ([7]; panel of approximately 336 wild-type kinases, in words) | inhibition at 1 µM ([8]; at 1 μM, read-out: inhibition of CLK1) [%] | inhibition at 1 µM [8, 11] [%] | inhibition at 1 µM ([9]; at 1 μM, read-out: inhibition of LIMK2) [%] | inhibition at 1 µM [9, 12] [%] | inhibition at 1 µM ([10]; at 1 μM, read-out: inhibition of MUSK) [%] | inhibition at 1 µM [10, 13] [%] | IC50 ([6]; numeric) [µM] |
| --- | --- | --- | --- | --- | --- | --- | --- | --- | --- | --- | --- | --- | --- | --- | --- | --- |
| Cc1cccnc1[C@H]1CCC[C@@H](c2ncccc2C)N1CCN1CCN(C(=O)c2ccc(-c3cc4c(-c5cccc(NC(=O)c6ccccc6)c5C)ncnc4[nH]3)cc2)CC1 [Compound I-10, N-(3-(6-(4-(4-(2-((2R,6S)-2,6-bis(3-methylpyridin-2-yl)piperidin-1-yl)ethyl)piperazine-1-carbonyl)phenyl)-7H-pyrrolo[2,3-d]pyrimidin-4-yl)-2-methylphenyl)benzamide] | 0.053 | < 50 | < 50 | < 50 | < 50 | < 50 | 0.1 to 2 | more effective in promoting apoptosis | surprisingly high selectivity for BTK inhibition | 50 to 89 | 50 to 69 | 50 to 89 | 50 to 69 | 50 to 89 | 70 to 89 |  |
